Where only a bound is given, the exact number is not on record here.

Data set [1] deals with human MCF-7, Chinese hamster CHO and DC3F cells. As to the kind of experiment: Cytotoxicity (LD50) by clonogenic survival assays in three cell lines. Conditions: 1 h drug treatment; MCF-7, CHO and DC3F cells. It counts as cell-based. On the procedure: (§1) Clonogenic Survival Assay. […] 18–24 h prior to experimental studies.
(§2) Colonies consisting of >50 cells were counted.
We investigated the relationship between the TOP1-mediated DNA damage and the cytotoxic and radiosensitizing effects induced by the six INDO derivatives. The cytotoxicity of various INDO derivatives was determined by exposing logarithmically growing human MCF-7, Chinese hamster CHO and DC3F cells to the individual drug for 1 hr, followed by clonogenic survival assays.

The test system of data set [2] is human breast cancer MCF-7 cells. Kind of data set: Clonogenic survival assay, drug alone (cytotoxicity) in MCF-7 cells. It counts as cell-based. Conditions: 2 μg/ml for 1 h, read graphically from FIG. 2. Here is the method:
as §1, §2

Data set [3] concerns the target T1, purified human TOP1 (Homo sapiens, UniProt P11387).
T1 construct: purchased TopoGEN, Inc. (Columbus, Ohio)
T1 sequence (P11387 1-765): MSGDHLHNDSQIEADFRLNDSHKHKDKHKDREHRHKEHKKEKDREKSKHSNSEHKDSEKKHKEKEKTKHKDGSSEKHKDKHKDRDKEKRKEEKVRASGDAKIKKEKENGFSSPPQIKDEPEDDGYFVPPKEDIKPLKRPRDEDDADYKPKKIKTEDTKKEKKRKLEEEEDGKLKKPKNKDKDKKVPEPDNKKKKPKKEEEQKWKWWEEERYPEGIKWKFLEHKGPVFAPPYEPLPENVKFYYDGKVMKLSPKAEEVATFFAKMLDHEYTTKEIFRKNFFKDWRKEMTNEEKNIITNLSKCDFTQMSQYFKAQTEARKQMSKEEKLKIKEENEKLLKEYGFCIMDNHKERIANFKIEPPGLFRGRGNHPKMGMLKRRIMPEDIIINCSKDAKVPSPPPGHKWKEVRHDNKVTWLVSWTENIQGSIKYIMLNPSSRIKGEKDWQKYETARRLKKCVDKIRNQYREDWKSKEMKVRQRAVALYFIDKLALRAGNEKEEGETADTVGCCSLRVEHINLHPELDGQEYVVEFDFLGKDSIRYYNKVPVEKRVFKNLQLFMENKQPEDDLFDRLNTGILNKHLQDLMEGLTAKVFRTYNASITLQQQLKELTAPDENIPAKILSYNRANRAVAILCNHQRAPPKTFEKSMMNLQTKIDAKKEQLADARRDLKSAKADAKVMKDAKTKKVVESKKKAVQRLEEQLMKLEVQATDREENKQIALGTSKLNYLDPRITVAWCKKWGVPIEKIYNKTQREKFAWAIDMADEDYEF
Kind of data set: In vitro drug-stimulated TOP1 cleavage assay (pHOT1 plasmid nicking). The format is biochemical. Set-up: key to TOP1-mediated DNA cleavage: +++: high activity; ++: modest activity; +: low activity. Conditions: for TOP1-mediated DNA cleavage: in vitro, based on FIG. 4B and 4C; for Potency in inducing TOP1-mediated DNA cleavage (nicking of pHOT1): purified human TOP1, FIG. 4, 4C. Here is the method:
In vitro drug-stimulated TOP1 cleavage assay. Drug-stimulated DNA cleavage assay using purified human TOP1 was performed according to the protocol provided by TopoGEN Inc. (Columbus, Ohio) with modifications.
Briefly, supercoiled pHOT1 plasmid DNA (0.2 μg) was incubated with 1 unit of human TOP1 in cleavage buffer (50 mM Tris, pH 7.8, 50 mM KCl, 10 mM MgCl2, 1 mM dithiothreitol, 1 mM EDTA) in the presence of varying concentrations of the drug under study. Following a 30-min incubation at 37° C., the reactions were terminated by adding SDS to 1.0% and proteinase K to 200 μg/ml. The proteinase K treatment continued at 37° C. for 1 h. The sample was then mixed with loading dye (containing sucrose and bromphenol blue) and separated in 1% agarose gel in 0.08 M Tris-phosphate, 0.008 M EDTA, pH 8.0 buffer at room temperature for 16 h.
The gel was initially stained with ethidium bromide ([…]), washed and photographed under UV light. In order to separate the “nicked” from the “relaxed” DNA population, the gel was further run for 4 h in the presence of ethidium bromide before being photographed again under UV light. The photograph was scanned and the intensity of the nicked DNA of each lane was measured using the ImageJ program obtained from the National Institutes of Health (web site: rsb.info.nih.gov/ij/). The intensity of the nicked band of each lane was plotted after the background intensity (pHOT1+TOP1 lane) was subtracted.

For data set [4], the system named is human breast cancer MCF-7 cells. Kind of data set: Clonogenic survival assay with radiation (radiosensitization) in MCF-7 cells. It counts as cell-based. The following applies: for ER (SER per footnote c, sensitization enhancement ratio): 2 μg/ml 1 h before radiation, at 10% survival; for Dq (width of the shoulder of the radiation survival curve): SHMT model fit, FIG. 3B; for Induction of RS / enhancement of radiocytotoxicity: one-hour preincubation with 2 μg/ml, FIG. 2; for RT dose (Gy) at 10% survival: pre-treated 2 μg/ml 1 h, rinsed, then radiation; for Enhancement of radiocytotoxicity: 10 μg/ml (data not shown). Here is the method:
as §1, §2
Irradiation of Cells. Drug-treated and control cells in medium were irradiated using a cobalt-60 source (Eldorado 8; Theratronics, Canada) at a dose rate of 105 cGy/min.
Analysis of Survival Curves. Survival curves were corrected for cytotoxicity induced by drug alone treatment. Sensitization enhancement ratios (SERs) and standard deviations for survival curves were determined at 10% cell survival. Each SER was calculated by dividing the radiation dose to induce 10% cell survival in the absence of radiosensitizer with the radiation dose to induce 10% cell survival in the presence of radiosensitizer.
The updated programs developed by Dr. N. Albright (San Rafael, Calif.) (Albright, N., Radiat. Res., 112:331–340 (1987)) were used for curve fitting for MCF-7 cells with the linear quadratic (LQ) and the single hit multi-target (SHMT) models. Both the LQ and SHMT models gave qualitatively good fits. The fit with the SHMT model was used for the present study.

In data set [5] the test system is camptothecin-resistant, TOP1 mutant DC3F/C-10 cells. The following applies: for Cytotoxic effect: DC3F/C10 cells. On the procedure:
Clonogenic Survival Assay. For a typical clonogenic survival experiment, stock cultures of exponentially growing cells were trypsinized, rinsed, and plated (5×10^5 cells per dish for DC3F and DC3F/C-10 cells; 1×10^6 cells for MCF-7 cells) into 100-mm petri dishes and incubated at 37° C. 18–24 h prior to experimental studies.
Following various experimental protocols with drug incubation and irradiation, cells were trypsinized, rinsed, counted, and plated for […] colony formation. Depending on the anticipated survival level, 10^2 to 10^5 cells were plated per dose point. When higher cell numbers were plated, large petri dishes were used to avoid possible cell-density effect (100-mm instead of 60-mm petri dishes for cell number≧5×10^4). Depending on the treatment protocols, an equivalent amount of DMSO was added into each of the control radiation alone dishes (final DMSO concentration <0.1%).
Following seven to fourteen days of incubation, colonies were fixed with methanol/acetic acid (3:1), stained with crystal violet. Colonies consisting of >50 cells were counted. All survival points were done in triplicate, and experiments were conducted a minimum of two times. Error bars shown in the figures represent standard deviations (SD) and are shown when larger than the symbol.
The DC3F/C-10 cell line was selected from the Chinese Hamster lung fibroblast DC3F cell line in the presence of 1 μM of camptothecin (Albright, N., Radiat. Res., 112:331–340 (1987), and Chen, Y. N., J. Biol. Chem., 265:10073–10080 (1990)). […] In an attempt to determine the importance of TOP1 in mediating the cytotoxic and radiosensitizing effects by INDO derivatives, clonogenic survival assays were performed in DC3F and DC3F/C10 cells.

For the compound `CO[C@H]1[C@H](O)[C@@H](O)[C@H](n2c3c(Cl)cccc3c3c4c(c5c6cccc(Cl)c6[nH]c5c32)C(=O)NC4=O)O[C@@H]1CO` [F1, rebeccamycin], the “Cytotoxicity (based on LD50)” value in data set [1] was “++ (modest activity, LD50 >4 μg/ml but ≦10 μg/ml)”. Further, the “Percent of cell survival without RT” value in data set [2] is reported as 94 ± 8%. Besides, in data set [3], the “TOP1-mediated DNA cleavage” value was “+” and the “Potency in inducing TOP1-mediated DNA cleavage (nicking of pHOT1)” value (“Potency” for short) is listed as “less potent group”. For the same compound, in data set [4], the “ER (SER per footnote c, sensitization enhancement ratio)” value is given as 1.9; the “Dq (width of the shoulder of the radiation survival curve)” value (shortened to “Dq”) is given as “drastically reduced”; the “Induction of RS / enhancement of radiocytotoxicity” value was “induction of RS was observed”; the “RT dose (Gy) at 10% survival” value amounted to 3.8 Gy. The Cytotoxic effect result in data set [5] is reported as “lack of cytotoxic effect”.
Consider `COC1C(CO)OC(n2c3ccccc3c3c4c(c5c6ccccc6[nH]c5c32)C(=O)OC4=O)C(O)C1O` (stereo not drawn) [F5], for which the “Cytotoxicity (based on LD50)” value in data set [1] was “+ (low activity, LD50 >10 μg/ml)”. Further, the “Percent of cell survival without RT” value in data set [2] is listed as 98 ± 2%. Besides, in data set [3], the “TOP1-mediated DNA cleavage” value is given as “+” and the “Potency” value was “less potent group”. In addition, in data set [4], the “ER (SER per footnote c, sensitization enhancement ratio)” value came out at 1.7; the “Dq” value is on record as “drastically reduced”; the “Induction of RS / enhancement of radiocytotoxicity” value is recorded as “induction of RS was observed”; the “RT dose (Gy) at 10% survival” value was 4.2 Gy. Further, the Cytotoxic effect entry in data set [5] was “lack of cytotoxic effect”.
With `COC1C(CO)OC(n2c3ccccc3c3c4c(c5c6ccccc6[nH]c5c32)C(=O)N(O)C4=O)C(O)C1O` (stereo not drawn) [F7], the “Cytotoxicity (based on LD50)” value in data set [1] was “++ (modest activity, LD50 >4 μg/ml but ≦10 μg/ml)”. Besides, the “Percent of cell survival without RT” value in data set [2] came to 98 ± 2%. For the same compound, in data set [3], the “TOP1-mediated DNA cleavage” value was “+++” and the “Potency” value is “equivalent activity as camptothecin”. In data set [4], the “ER (SER per footnote c, sensitization enhancement ratio)” value came to 1.7; the “Dq” value is on record as “drastically reduced”; the “Induction of RS / enhancement of radiocytotoxicity” value is “induction of RS was observed”; the “RT dose (Gy) at 10% survival” value was 4.2 Gy. Also, in data set [5], the “RR (relative resistance)” value was above 5.0 and the “Relative resistance of DC3F/C10 cells to the cytotoxic effect” value (“Relative resistance of DC3F/C10 cells” below) was “more than 5 fold”.
In the case of `COC1C(CO)OC(n2c3c(Cl)cccc3c3c4c(c5c6cccc(Cl)c6[nH]c5c32)C(=O)N(C)C4=O)C(O)C1O` (stereo not drawn) [F43], the “Cytotoxicity (based on LD50)” value in data set [1] is reported as “+ (low activity, LD50 >10 μg/ml)”. For the same compound, the “Percent of cell survival without RT” value in data set [2] was found to be 95 ± 5%. In addition, in data set [3], the “TOP1-mediated DNA cleavage” value is “+” and the “Potency” value is listed as “less potent group”. For the same compound, in data set [4], the “ER (SER per footnote c, sensitization enhancement ratio)” value is 1.0; the Enhancement of radiocytotoxicity entry is reported as “do not enhance radiocytotoxicity”; the “Induction of RS / enhancement of radiocytotoxicity” value was “do not enhance radiocytotoxicity”; the “RT dose (Gy) at 10% survival” value was 7.0 Gy. The Cytotoxic effect result in data set [5] was “lack of cytotoxic effect”.
In the case of `COC1C(CO)OC(n2c3ccccc3c3c4c(c5c6ccccc6[nH]c5c32)C(=O)N(C)C4=O)C(O)C1O` (stereo not drawn) [F44], in data set [1], the “Cytotoxicity (based on LD50)” value is listed as “+++ (high activity, LD50 ≦4 μg/ml)”. Besides, the “Percent of cell survival without RT” value in data set [2] was 100 ± 2%. Also, in data set [3], the “TOP1-mediated DNA cleavage” value is recorded as “++” and the “Potency” value was “less potent group”. Further, in data set [4], the “ER (SER per footnote c, sensitization enhancement ratio)” value was determined as 1.0; the Enhancement of radiocytotoxicity entry is recorded as “do not enhance radiocytotoxicity”; the “Induction of RS / enhancement of radiocytotoxicity” value is recorded as “do not enhance radiocytotoxicity”; the “RT dose (Gy) at 10% survival” value is recorded as 6.9 Gy. In data set [5], the “RR (relative resistance)” value amounted to 2.5 and the “Relative resistance of DC3F/C10 cells” value was found to be 2.5 fold.
`COC1C(CO)OC(n2c3ccccc3c3c4c(c5c6ccccc6[nH]c5c32)C(=O)NC4=O)C(O)C1O` (stereo not drawn) [F71]: the “Cytotoxicity (based on LD50)” value in data set [1] is “+++ (high activity, LD50 ≦4 μg/ml)”. Also, the “Percent of cell survival without RT” value in data set [2] came to 85 ± 10%. In data set [3], the “TOP1-mediated DNA cleavage” value is recorded as “+++” and the “Potency” value is recorded as “equivalent activity as camptothecin”. In data set [4], the “ER (SER per footnote c, sensitization enhancement ratio)” value is recorded as 1.0; the Enhancement of radiocytotoxicity entry is listed as “do not enhance radiocytotoxicity”; the “Induction of RS / enhancement of radiocytotoxicity” value is “do not enhance radiocytotoxicity”; the “RT dose (Gy) at 10% survival” value turned out to be 7.2 Gy. Moreover, in data set [5], the “RR (relative resistance)” value was 2.7 and the “Relative resistance of DC3F/C10 cells” value stood at 2.7 fold.

The record behind these values is US7037901B1, “Radiosensitization by indolocarbazole derivatives” (priority 2001, dated 2006).
